In data set [1] the test system is female Syrian golden hamsters. The experiment in a line: anti-fertility activity in pregnant female Syrian golden hamsters. Type of data set: in vivo. Further details: key to anti-fertility activity (active according to criteria): active: a reduction of live fetuses in at least 60% of the treated animals and the presence of implantation sites proves the animal to have been pregnant. The settings on record: for anti-fertility activity (active according to criteria): 10 mg./kg. s.c. daily for 5 days, days 4-8 of pregnancy, autopsy day 14; for ED50: Mesocricetus auratus, sc, read-out: ED50 (dose showing 100% effectiveness in 50% of the treated animals). The protocol: Representative experiments for assessing anti-fertility activity are carried out with female Syrian golden hamsters weighing 100 to 130 g. The animals are mated and the presence of sperm in the vagina is taken as evidence of mating. The day sperm is detected is considered day one of pregnancy, since in our laboratories and those of other investigators 90 to 100% of animals that mate as evidenced by vaginal sperm are pregnant. Pregnancy is later confirmed at the time of autopsy by presence of fetuses or implantation sites in the uterus. Even if an animal aborts the fetus, implantation scars still remain as evidence that the animal had been pregnant. Test compounds dissolved or suspended in sesame oil are administered subcutaneously in doses of 10 mg./kg. daily for 5 days beginning on day 4 of pregnancy (days 4-8). The animals are autopsied on day 14 of pregnancy and the uteri are examined for evidence of pregnancy (implantation sites, fetal resorptions or live fetuses), hemorrage, and evidence of abnormalities of the uterus, placenta or fetuses. A compound is considered to be active if there is a reduction of live fetuses in at least 60% of the treated animals and the presence of implantation sites proves the animal to have been pregnant. […] The compounds are then studied for dose-activity relationship and toxicity or other biological activities. Compounds that show 100% effectiveness (absence of live fetuses in 100% of animals) with minimal side effects or toxicity are studied in depth.
The ED50 values identify the dose levels which show 100% effectiveness (defined as above) in 50% of the treated animals.

Data set [2] has as its system conditioned rats. Briefly: secondary conditioned avoidance response test (anti-anxiety effect). Type of data set: in vivo. The protocol: The CNS depressant properties were investigated according to the Irwin method, and in particular, the anti-anxiety effect was evaluated on the basis of the secondary conditioned avoidance response test. A specific anti-anxiety effect was evidenced by administering to conditioned rats doses of 15-60 mg./kg. i.p. of representative compounds of the invention.
The following table indicates the ratio of the rats which were deconditioned after administration of a predetermined amount of a representative compound: […]

Data set [3] is described as follows: acute toxicity LD50 in mice. The settings on record: mouse, in vivo, ip; i.p. in mice.
[4] abbreviates: Table II, 5,6-unsaturated compounds, similar experiments.
[5] abbreviates: Table I, 5,6-dihydro compounds, hamsters.

Consider 30 compounds from patent US4075341A, “2-Substituted phenyl-5-triazols [5,1-a] isoquinoline compounds” (Gruppo Lepetit S.p.A., priority 1975, dated 1978).

Broadly, the ED50 is the midpoint of the dose-response relation. The LD50 is the dose expected to kill half of the subjects tested.

The structures appear in SMILES notation. Where two headings read alike, the source gives them in different places.

As to `Clc1ccc(-c2nc3c4ccccc4ccn3n2)cc1` [Example 61, 2-(p-Chlorophenyl)-s-triazolo[5,1-a]isoquinoline], the “anti-fertility activity (active according to criteria)” value (shortened to “anti-fertility activity”) in data set [1] is reported as “active”. The ED50 in data set [1] (setting [4]) stood at 0.08 mg/kg.

Turning to `CCCCOc1cccc(-c2nc3n(n2)CCc2ccccc2-3)c1` [Example 31, 2-(m-butoxyphenyl)-5,6-dihydro-s-triazolo[5,1-a]isoquinoline], the “anti-fertility activity” value in data set [1] is “active”.

Regarding `c1cc(OC2CCCC2)cc(-c2nc3n(n2)CCc2ccccc2-3)c1` [Example 23, 2-(m-cyclopentyloxyphenyl)-5,6-dihydro-s-triazolo[5,1-a]isoquinoline], in data set [1], the “anti-fertility activity” value is given as “active”.

`Cc1ccc(-c2nc3n(n2)CCc2ccccc2-3)cc1` [Example 4, 2-(p-toluyl)-5,6-dihydro-s-triazolo[5,1-a]isoquinoline, reference compound]: the ED50 in data set [1] (setting [5]) was determined as 2 mg/kg.

As to `Nc1nc2n(n1)CCc1ccccc1-2` [Example 32], the Deconditioned/treated in data set [2] (dose 30 mg./kg. i.p.) is reported as 6/10. For the same compound, in data set [3], the LD50 was more than 600 mg/kg.

For `N=C(NN1CCc2ccccc2C1=O)c1cccc([N+](=O)[O-])c1` [2-(m-Nitrobenzimidoylamino)-3,4-dihydro-1-(2H) isoquinolinone], the results for the Deconditioned/treated in data set [2] (dose 30 mg./kg. i.p.) and in data set [2] (dose 60 mg./kg. i.p.) were 6/10 and 10/10, respectively. Also, the LD50 in data set [3] was more than 600 mg/kg.

`c1cncc(-c2nc3n(n2)CCc2ccccc2-3)c1` [Example 10, 2-(3-pyridyl)-5,6-dihydro-s-triazolo[5,1-a]isoquinoline]: in data set [2] (dose 15 mg./kg. i.p.), the Deconditioned/treated is given as 10/10. In addition, in data set [3], the LD50 was more than 400 mg/kg.

Turning to `COc1cccc(-c2nc3c4ccccc4ccn3n2)c1` [Example 58, 2-(m-Methoxyphenyl)-s-triazolo[5,1-a]isoquinoline], the “anti-fertility activity” value in data set [1] is given as “active”. In addition, the ED50 in data set [1] (setting [4]) was found to be 0.1 mg/kg.

As for `Clc1cccc(-c2nc3n(n2)CCc2ccccc2-3)c1` [Example 7, 2-(m-chlorophenyl)-5,6-dihydro-s-triazolo[5,1-a]isoquinoline], the “anti-fertility activity” value in data set [1] is “active”. The ED50 in data set [1] (setting [5]) amounted to 0.75 mg/kg.

With `c1ccc(-c2nc3c4ccccc4ccn3n2)cc1` [Example 59, 2-Phenyl-s-triazolo[5,1-a]isoquinoline, reference compound], the ED50 in data set [1] (setting [4]) was determined as 0.25 mg/kg.

Consider `CC(C)Oc1cccc(-c2nc3n(n2)CCc2ccccc2-3)c1` [Example 21, 2-(m-isopropoxyphenyl)-5,6-dihydro-s-triazolo[5,1-a]isoquinoline], for which the “anti-fertility activity” value in data set [1] is “active”. Besides, the ED50 in data set [1] (setting [5]) amounted to 0.25 mg/kg.

As for `Fc1ccc(-c2nc3n(n2)CCc2ccccc2-3)cc1` [Example 28, 2-(p-fluorophenyl)-5,6-dihydro-s-triazolo[5,1-a]isoquinoline], in data set [1], the “anti-fertility activity” value is “active”. Also, the ED50 in data set [1] (setting [5]) amounted to 0.1 mg/kg.

Turning to `CCCCCOc1cccc(-c2nc3n(n2)CCc2ccccc2-3)c1` [Example 22, 2-(m-pentyloxyphenyl)-5,6-dihydro-s-triazolo[5,1-a]isoquinoline], the “anti-fertility activity” value in data set [1] is recorded as “active”.

Turning to `COc1cc(OC)cc(-c2nc3n(n2)CCc2ccccc2-3)c1` [Example 12, 2-(3,5-dimethoxyphenyl)-5,6-dihydro-s-triazolo[5,1-a]isoquinoline], the “anti-fertility activity” value in data set [1] is listed as “active”.

For `c1ccc2c(c1)CCn1nc(-c3ccc4c(c3)OCO4)nc1-2` [Example 16, 2-(3,4-methylenedioxyphenyl)-5,6-dihydro-s-triazolo[5,1-a]isoquinoline], in data set [1], the “anti-fertility activity” value was “active”.

Regarding `C#CCOc1cccc(-c2nc3n(n2)CCc2ccccc2-3)c1` [Example 25, 2-(m-propargyloxyphenyl)-5,6-dihydro-s-triazolo[5,1-a]isoquinoline], the “anti-fertility activity” value in data set [1] is given as “active”. The ED50 in data set [1] (setting [5]) amounted to 0.21 mg/kg.

Regarding `Oc1cccc(-c2nc3n(n2)CCc2ccccc2-3)c1` [Example 42, 2-(3-Hydroxyphenyl)-5,6-dihydro-s-triazolo[5,1-a]isoquinoline], the “anti-fertility activity” value in data set [1] is given as “active”.

Turning to `CC(=O)N(C(C)=O)c1nc2n(n1)CCc1ccccc1-2` [Example 34, 2-Diacetylamino-5,6-dihydro-s-triazolo[5,1-a]isoquinoline], in data set [2] (dose 60 mg./kg. i.p.), the Deconditioned/treated is 6/9. This compound returned an LD50 in data set [3] of more than 600 mg/kg.

Take `CN(C)c1ccc(-c2nc3n(n2)CCc2ccccc2-3)cc1` [Example 27, 2-(p-dimethylaaminophenyl)-5,6-dihydro-s-triazolo[5,1-a]isoquinoline]: the “anti-fertility activity” value in data set [1] is reported as “active”.

Consider `CCOC(=O)NC(=S)Nc1nc2n(n1)CCc1ccccc1-2` [2-carbethoxythioureido-5,6-dihydro-s-triazole-[5,1-a]isoquinoline], for which, in data set [2] (dose 60 mg./kg. i.p.), the Deconditioned/treated is 7/10. In data set [3], the LD50 is more than 600 mg/kg.

As to `c1ccc(-c2nc3n(n2)CCc2ccccc2-3)cc1` [Example 5, 2-phenyl-5,6-dihydro-s-triazolo[5,1-a]isoquinoline, reference compound], in data set [1] (setting [5]), the ED50 came to 1 mg/kg.

As to `CC(=O)Nc1nc2n(n1)CCc1ccccc1-2` [Example 35, 2-Acetamido-5,6-dihydro-s-triazolo[5,1-a]isoquinoline], the Deconditioned/treated in data set [2] (dose 60 mg./kg. i.p.) is reported as 7/10. In addition, the LD50 in data set [3] is more than 400 mg/kg.

As to `c1ccc(COc2cccc(-c3nc4n(n3)CCc3ccccc3-4)c2)cc1` [Example 15, 2-(m-benzyloxyphenyl)-5,6-dihydro-s-triazolo[5,1-a]isoquinoline], the “anti-fertility activity” value in data set [1] is “active”.

`Clc1ccc(-c2nc3n(n2)CCc2ccccc2-3)cc1` [Example 8, 2-(p-chlorophenyl)-5,6-dihydro-s-triazolo[5,1-a]isoquinoline]: in data set [1], the “anti-fertility activity” value is listed as “active”. The ED50 in data set [1] (setting [5]) is 0.065 mg/kg.

For `Cc1ccccc1-c1nc2n(n1)CCc1ccccc1-2` [Example 2, 2-(o-toluyl)-5,6-dihydro-s-triazolo[5,1-a]isoquinoline, reference compound], the median effective dose (ED50) in data set [1] (setting [5]) is more than 10 mg/kg.

`Cc1cccc(-c2nc3n(n2)CCc2ccccc2-3)c1` [Example 3, 2-(m-toluyl)-5,6-dihydro-s-triazolo[5,1-a]isoquinoline, reference compound]: in data set [1] (setting [5]), the ED50 was more than 10 mg/kg.

Consider `Cc1nc2n(n1)CCc1ccccc1-2` [Example 9, 2-methyl-5,6-dihydro-s-triazolo[5,1-a]isoquinoline, reference compound], for which, in data set [1] (setting [5]), the ED50 was more than 10 mg/kg.

Turning to `Fc1cccc(-c2nc3n(n2)CCc2ccccc2-3)c1` [Example 19, 2-(m-fluorophenyl)-5,6-dihydro-s-triazolo[5,1-a]isoquinoline], in data set [1], the “anti-fertility activity” value was “active”.

Consider `CN(C)c1cccc(-c2nc3n(n2)CCc2ccccc2-3)c1` [Example 41, 2-(m-Dimethylaminophenyl)-5,6-dihydro-s-triazolo[5,1-a]isoquinoline], for which, in data set [1], the “anti-fertility activity” value is listed as “active”.

As to `N=C(NN1CCc2ccccc2C1=O)c1ccccc1` [2-Benzimidoylamino-3,4-dihydro-1 (2H)-isoquinolinone], the Deconditioned/treated in data set [2] (dose 60 mg./kg. i.p.) is given as 10/10. Also, the LD50 in data set [3] is more than 600 mg/kg.
